Patent publication US20260092071A1, “COMPOUNDS AND COMPOSITIONS AS SMARCA2/4 DEGRADERS AND USES THEREOF” (REGENTS OF THE UNIVERSITY OF MICHIGAN, priority 2022, published 2026)
Where two headings read alike, the source gives them in different places.

Legend:
[1] = biological target: SMARCA4 (Homo sapiens, UniProt P51532); assay: HiBiT assay for protein degradation, Hela SMARCA4-HiBiT cells (A series); type: cell-based; set-up: fuse HiBiT to the carboxy terminus of SMARCA2 (Promega CS302365) or SMARCA4 (Promega CS3023225); host or cells: HeLa (CRISPR/Cas9 HiBiT knock-in); conditions: for DC50: read-out: SMARC A4 Hela HiBit DC50
Procedure, shortened: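 SMARCA4 degradation was measured in HeLa cells in which HiBiT had been knocked into the SMARCA4 carboxy terminus via CRISPR/Cas9 (Promega CS3023225). Cells were maintained in DMEM with FBS and penicillin-streptomycin. At the end of treatment, SMARCA4 levels were read by lytic HiBiT luminescence (Nano-Glo®, Promega N3050), and data were analyzed with GraphPad Prism.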

[2] = biological target: SMARCA2 (Homo sapiens, UniProt P51531); assay: HiBiT assay for protein degradation, Hela SMARCA2-HiBiT cells (A series); type: cell-based; set-up: Hela cells were genetically modified via CRISPR/Cas9 to fuse HiBiT to the carboxy terminus of SMARCA2; host or cells: HeLa (CRISPR/Cas9 HiBiT knock-in); conditions: for DC50: read-out: SMARC A2 Hela HiBit DC50; for Dmax: read-out: SMARC A2 Hela HiBit Dmax (%);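 on SMARC A2 Hela HiBit Dmax (%): 24 h compound treatment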
Procedure, shortened: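 SMARCA2 degradation was measured in HeLa cells whose endogenous SMARCA2 carries a carboxy-terminal HiBiT tag introduced by CRISPR/Cas9 (Promega CS302365). Cells were maintained in DMEM with FBS and penicillin-streptomycin. SMARCA2 levels were read at the end of the experiment by Nano-Glo® HiBiT lytic luminescence (Promega N3050) and analyzed in GraphPad Prism.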

[3] = Hela SMARCA4-HiBiT cells, 24 hours treatment
[4] = Hela SMARCA4-HiBiT cells, 24 hours treatment, read-out: SMARC A4 Hela HiBit Dmax(%)
[5] = Hela SMARCA2-HiBiT cells, 24 hours treatment
[6] = Hela SMARCA4-HiBiT cells, 24 hours treatment, read-out: SMARC A4 Hela HiBit Dmax

Chain of SMARCA4 (P51532 whole entry): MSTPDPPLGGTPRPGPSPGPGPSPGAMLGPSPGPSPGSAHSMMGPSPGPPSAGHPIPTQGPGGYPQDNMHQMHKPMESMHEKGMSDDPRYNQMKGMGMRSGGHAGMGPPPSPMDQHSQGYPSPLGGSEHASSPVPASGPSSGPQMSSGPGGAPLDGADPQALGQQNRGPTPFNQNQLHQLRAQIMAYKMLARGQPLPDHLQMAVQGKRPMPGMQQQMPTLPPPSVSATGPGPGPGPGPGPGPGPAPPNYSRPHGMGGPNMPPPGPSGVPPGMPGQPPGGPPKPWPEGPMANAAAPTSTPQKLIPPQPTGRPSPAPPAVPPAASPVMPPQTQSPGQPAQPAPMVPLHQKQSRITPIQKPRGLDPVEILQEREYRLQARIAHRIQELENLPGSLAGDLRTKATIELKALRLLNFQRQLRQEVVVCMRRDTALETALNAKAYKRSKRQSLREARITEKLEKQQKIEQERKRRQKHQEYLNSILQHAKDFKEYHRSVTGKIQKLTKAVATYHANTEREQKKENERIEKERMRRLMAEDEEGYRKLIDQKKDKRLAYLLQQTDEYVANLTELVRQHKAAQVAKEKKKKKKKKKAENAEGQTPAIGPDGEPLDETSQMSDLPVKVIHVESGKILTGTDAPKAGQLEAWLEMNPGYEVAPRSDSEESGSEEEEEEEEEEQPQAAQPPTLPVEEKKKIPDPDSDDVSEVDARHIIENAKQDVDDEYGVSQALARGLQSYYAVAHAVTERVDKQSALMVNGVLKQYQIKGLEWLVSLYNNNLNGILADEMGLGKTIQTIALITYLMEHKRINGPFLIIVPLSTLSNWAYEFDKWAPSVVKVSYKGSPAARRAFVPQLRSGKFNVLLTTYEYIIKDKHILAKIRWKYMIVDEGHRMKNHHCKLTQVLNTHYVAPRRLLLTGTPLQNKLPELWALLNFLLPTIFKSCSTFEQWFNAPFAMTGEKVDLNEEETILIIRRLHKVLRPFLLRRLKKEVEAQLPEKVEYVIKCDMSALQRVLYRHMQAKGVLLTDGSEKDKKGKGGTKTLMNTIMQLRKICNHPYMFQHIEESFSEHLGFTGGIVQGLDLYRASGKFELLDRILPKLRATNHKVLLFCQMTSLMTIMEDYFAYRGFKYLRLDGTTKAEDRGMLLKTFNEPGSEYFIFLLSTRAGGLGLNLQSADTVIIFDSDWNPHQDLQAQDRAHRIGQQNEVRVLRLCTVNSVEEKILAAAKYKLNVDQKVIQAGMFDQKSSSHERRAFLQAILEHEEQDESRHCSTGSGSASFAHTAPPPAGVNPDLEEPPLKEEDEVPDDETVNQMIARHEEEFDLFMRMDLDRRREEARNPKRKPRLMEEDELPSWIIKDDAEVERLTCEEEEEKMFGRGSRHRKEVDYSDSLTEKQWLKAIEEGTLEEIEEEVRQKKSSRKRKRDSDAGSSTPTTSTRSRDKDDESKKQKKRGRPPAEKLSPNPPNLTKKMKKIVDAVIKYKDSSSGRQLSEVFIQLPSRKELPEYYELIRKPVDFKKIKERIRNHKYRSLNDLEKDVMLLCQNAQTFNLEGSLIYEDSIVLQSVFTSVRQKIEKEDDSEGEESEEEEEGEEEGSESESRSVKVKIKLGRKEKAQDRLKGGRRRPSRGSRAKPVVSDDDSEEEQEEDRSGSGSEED
Chain of SMARCA2 (P51531 whole entry): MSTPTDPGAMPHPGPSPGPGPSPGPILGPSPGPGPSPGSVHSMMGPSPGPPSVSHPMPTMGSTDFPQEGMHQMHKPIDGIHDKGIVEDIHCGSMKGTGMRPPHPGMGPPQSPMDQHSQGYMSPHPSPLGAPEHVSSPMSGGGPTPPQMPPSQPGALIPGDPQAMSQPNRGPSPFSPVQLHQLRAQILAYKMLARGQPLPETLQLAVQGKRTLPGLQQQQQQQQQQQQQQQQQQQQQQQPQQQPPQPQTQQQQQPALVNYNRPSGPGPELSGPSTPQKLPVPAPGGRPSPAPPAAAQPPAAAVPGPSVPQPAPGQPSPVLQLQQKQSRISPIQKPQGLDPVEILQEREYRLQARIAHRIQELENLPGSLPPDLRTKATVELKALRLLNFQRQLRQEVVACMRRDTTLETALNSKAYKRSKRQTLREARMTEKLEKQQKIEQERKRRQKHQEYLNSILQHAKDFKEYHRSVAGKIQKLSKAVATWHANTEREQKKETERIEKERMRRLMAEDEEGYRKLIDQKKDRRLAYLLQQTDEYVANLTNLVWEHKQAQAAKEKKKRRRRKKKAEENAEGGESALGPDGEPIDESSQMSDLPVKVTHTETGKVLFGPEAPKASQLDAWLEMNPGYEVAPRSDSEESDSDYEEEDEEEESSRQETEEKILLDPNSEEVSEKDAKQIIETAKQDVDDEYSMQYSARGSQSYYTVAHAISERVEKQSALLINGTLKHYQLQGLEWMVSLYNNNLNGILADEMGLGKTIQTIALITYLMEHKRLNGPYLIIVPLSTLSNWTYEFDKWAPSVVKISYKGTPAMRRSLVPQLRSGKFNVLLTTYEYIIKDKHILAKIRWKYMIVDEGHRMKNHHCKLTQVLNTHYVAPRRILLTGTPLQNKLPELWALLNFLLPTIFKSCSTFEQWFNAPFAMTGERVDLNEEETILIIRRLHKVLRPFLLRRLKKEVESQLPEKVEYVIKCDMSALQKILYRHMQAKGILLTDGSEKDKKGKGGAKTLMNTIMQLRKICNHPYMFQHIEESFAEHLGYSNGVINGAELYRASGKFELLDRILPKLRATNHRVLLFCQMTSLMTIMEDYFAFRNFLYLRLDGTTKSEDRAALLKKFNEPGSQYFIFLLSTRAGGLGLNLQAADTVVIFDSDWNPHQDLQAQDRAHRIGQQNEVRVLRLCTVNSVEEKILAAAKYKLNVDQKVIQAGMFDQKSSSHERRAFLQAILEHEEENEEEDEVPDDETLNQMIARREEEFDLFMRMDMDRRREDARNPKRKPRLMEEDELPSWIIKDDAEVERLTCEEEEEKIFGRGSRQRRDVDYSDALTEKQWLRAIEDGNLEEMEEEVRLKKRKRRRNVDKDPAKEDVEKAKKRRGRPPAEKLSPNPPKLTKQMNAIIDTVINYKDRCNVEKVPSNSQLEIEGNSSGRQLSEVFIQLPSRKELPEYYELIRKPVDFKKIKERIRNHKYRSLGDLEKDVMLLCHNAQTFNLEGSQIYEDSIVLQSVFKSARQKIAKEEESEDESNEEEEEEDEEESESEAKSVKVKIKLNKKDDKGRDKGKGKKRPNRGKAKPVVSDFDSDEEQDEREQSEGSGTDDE

Compound	DC50 [1, 3] [nM]	Dmax [1, 4] [%]	DC50 [2, 5] [nM]	Dmax [2, 5] [%]	Dmax [1, 6] [%]	DC50 [1] [nM]	Dmax ([2]; HeLa) [%]	DC50 [2] [nM]
Cc1ncsc1-c1ccc([C@H](C)NC(=O)[C@@H]2C[C@@H](O)CN2C(=O)[C@@H](n2cc([C@H]3CC[C@H](CN4CCC(c5ncc6c(n5)-n5c(nc(=O)c7c(Br)cccc75)C65CCCCC5)CC4)CC3)nn2)C(C)(C)C)cc1 [Compound A31, (2S,4R)-1-((S)-2-(4-((1r,4S)-4-((4-(4′-bromo-5′-oxo-5′H-spiro[cyclohexane-1,7′-pyrimido[5′,4′: 4,5]pyrrolo[1,2-a]quinazolin]-10′-yl)piperidin-1-yl)methyl)cyclohexyl)-1H-1,2,3-triazol-1-yl)-3,3-dimethylbutanoyl)-4-hydroxy-N—((S)-1-(4-(4-methylthiazol-5-yl)phenyl)ethyl)pyrrolidine-2-carboxamide]	> 1000	50 to 69	> 1000	< 50				
Cc1ncsc1-c1ccc([C@H](Cn2cc(CN3CCC(c4ccc5c(c4)C4(CCCCC4)c4nc(=O)c6c(Br)cccc6n4-5)CC3)nn2)NC(=O)[C@@H]2C[C@@H](O)CN2C(=O)[C@@H](n2cc(C3CC3)nn2)C(C)(C)C)cc1 [Compound A115, (2S,4R)—N—((R)-2-(4-((4-(4′-bromo-5′-oxo-5′H-spiro[cyclohexane-1,7′-indolo[1,2-a]quinazolin]-9′-yl)piperidin-1-yl)methyl)-1H-1,2,3-triazol-1-yl)-1-(4-(4-methylthiazol-5-yl)phenyl)ethyl)-1-((S)-2-(4-cyclopropyl-1H-1,2,3-triazol-1-yl)-3,3-dimethylbutanoyl)-4-hydroxypyrrolidine-2-carboxamide]	10 to 100		10 to 100	70 to 90	> 90			
Cc1ncsc1-c1ccc([C@H](CN2CCOCC2)NC(=O)[C@@H]2C[C@@H](O)CN2C(=O)[C@@H](n2cc([C@H]3CC[C@H](CN4CCC(c5ccc6c(c5)-n5c(nc(=O)c7c(Br)cccc75)C65CCCCC5)CC4)CC3)nn2)C(C)(C)O)cc1 [Compound A160, (2S,4R)-1-((S)-2-(4-((1r,4S)-4-((4-(4′-bromo-5′-oxo-5′H-spiro[cyclohexane-1,7′-indolo[1,2-a]quinazolin]-10′-yl)piperidin-1-yl)methyl)cyclohexyl)-1H-1,2,3-triazol-1-yl)-3-hydroxy-3-methylbutanoyl)-4-hydroxy-N-((R)-1-(4-(4-methylthiazol-5-yl)phenyl)-2-morpholinoethyl)pyrrolidine-2-carboxamide]	> 1000		< 10	> 90	50 to 69			
Cc1ncsc1-c1ccc([C@H](CC(=O)N2CCC(N3CCC(c4ccc5c(c4)-n4c(nc(=O)c6c(Cl)cccc64)C54CCCCC4)CC3)CC2)NC(=O)[C@@H]2C[C@@H](O)CN2C(=O)[C@@H](n2cc(C3CC3)nn2)C(C)(C)C)cc1 [Compound A143, (2S,4R)—N—((S)-3-(4-(4′-chloro-5′-oxo-5′H-spiro[cyclohexane-1,7′-indolo[1,2-a]quinazolin]-10′-yl)-[1,4′-bipiperidin]-1′-yl)-1-(4-(4-methylthiazol-5-yl)phenyl)-3-oxopropyl)-1-((S)-2-(4-cyclopropyl-1H-1,2,3-triazol-1-yl)-3,3-dimethylbutanoyl)-4-hydroxypyrrolidine-2-carboxamide]	100 to 1000		10 to 100	70 to 90	50 to 69			
CC(C)(C)[C@@H](C(=O)N1C[C@H](O)C[C@H]1C(=O)N[C@@H](CN1CCOCC1)c1ccc(-c2ccccc2)cc1)n1cc([C@H]2CC[C@H](CN3CCC(c4ccc5c(c4)-n4c(nc(=O)c6c(Cl)cccc64)C54CCCCC4)CC3)CC2)nn1 [Compound A162, (2S,4R)—N—((R)-1-([1,1′-biphenyl]-4-yl)-2-morpholinoethyl)-1-((S)-2-(4-((1r,4S)-4-((4-(4′-chloro-5′-oxo-5′H-spiro[cyclohexane-1,7′-indolo[1,2-a]quinazolin]-10′-yl)piperidin-1-yl)methyl)cyclohexyl)-1H-1,2,3-triazol-1-yl)-3,3-dimethylbutanoyl)-4-hydroxypyrrolidine-2-carboxamide]	100 to 1000		< 10	> 90	50 to 69			
Cc1ncsc1-c1ccc([C@H](CN2CCC3(COC3)C2)NC(=O)[C@@H]2C[C@@H](O)CN2C(=O)[C@@H](n2cc([C@H]3CC[C@H](CN4CCC(c5ccc6c(c5)-n5c(nc(=O)c7c(Cl)cccc75)C65CCCCC5)CC4)CC3)nn2)C(C)(C)C)cc1 [Compound A97, (2S,4R)-1-((S)-2-(4-((1r,4S)-4-((4-(4′-chloro-5′-oxo-5′H-spiro[cyclohexane-1,7′-indolo[1,2-a]quinazolin]-10′-yl)piperidin-1-yl)methyl)cyclohexyl)-1H-1,2,3-triazol-1-yl)-3,3-dimethylbutanoyl)-4-hydroxy-N—((R)-1-(4-(4-methylthiazol-5-yl)phenyl)-2-(2-oxa-6-azaspiro[3.4]octan-6-yl)ethyl)pyrrolidine-2-carboxamide]	> 1000		< 10	> 90	50 to 69			
CC(C)(C)[C@@H](C(=O)N1C[C@H](O)C[C@H]1C(=O)N[C@@H](CN1CCOCC1)c1ccc(-c2scnc2C(F)(F)F)cc1)n1cc([C@H]2CC[C@H](CN3CCC(c4ccc5c(c4)-n4c(nc(=O)c6c(Cl)cccc64)C54CCCCC4)CC3)CC2)nn1 [Compound A167, (2S,4R)-1-((S)-2-(4-((1r,4S)-4-((4-(4′-chloro-5′-oxo-5′H-spiro[cyclohexane-1,7′-indolo[1,2-a]quinazolin]-10′-yl)piperidin-1-yl)methyl)cyclohexyl)-1H-1,2,3-triazol-1-yl)-3,3-dimethylbutanoyl)-4-hydroxy-N—((R)-2-morpholino-1-(4-(4-(trifluoromethyl)thiazol-5-yl)phenyl)ethyl)pyrrolidine-2-carboxamide]	> 1000		> 1000	< 50	< 50			
Cc1ncsc1-c1ccc([C@H](C)NC(=O)[C@@H]2C[C@@H](O)CN2C(=O)[C@@H](n2cc(CN3CCC(c4ccc5c(c4)C4(CCCCC4)c4nc(=O)c6c(Br)cccc6n4-5)CC3)nn2)C(C)(C)C)cc1 [Compound A53, (2S,4R)-1-((S)-2-(4-((4-(4′-bromo-5′-oxo-5′H-spiro[cyclohexane-1,7′-indolo[1,2-a]quinazolin]-9′-yl)piperidin-1-yl)methyl)-1H-1,2,3-triazol-1-yl)-3,3-dimethylbutanoyl)-4-hydroxy-N—((S)-1-(4-(4-methylthiazol-5-yl)phenyl)ethyl)pyrrolidine-2-carboxamide]	< 100	> 90	< 100	> 90				
Cc1ncsc1-c1ccc([C@H](C)NC(=O)[C@@H]2C[C@@H](O)CN2C(=O)[C@@H](NC(=O)C2CC(CN3CCC(c4ccc5c(c4)C4(CCCCC4)c4nc(=O)c6c(Br)cccc6n4-5)CC3)C2)C(C)(C)C)cc1 (stereo partly drawn) [Compound A20, (2S,4R)-1-((S)-2-(3-((4-(4′-bromo-5′-oxo-5′H-spiro[cyclohexane-1,7′-indolo[1,2-a]quinazolin]-9′-yl)piperidin-1-yl)methyl)cyclobutane-1-carboxamido)-3,3-dimethylbutanoyl)-4-hydroxy-N—((S)-1-(4-(4-methylthiazol-5-yl)phenyl)ethyl)pyrrolidine-2-carboxamide]		< 50				> 1000	> 90	< 100
COCCOC[C@H](NC(=O)[C@@H]1C[C@@H](O)CN1C(=O)[C@@H](n1cc([C@H]2CC[C@H](CN3CCC(c4ccc5c(c4)-n4c(nc(=O)c6c(Cl)cccc64)C5(C)C)CC3)CC2)nn1)C(C)(C)C)c1ccc(-c2scnc2C)cc1 [Compound A91, (2S,4R)-1-((S)-2-(4-((1r,4S)-4-((4-(4-chloro-7,7-dimethyl-5-oxo-5,7-dihydroindolo[1,2-a]quinazolin-10-yl)piperidin-1-yl)methyl)cyclohexyl)-1H-1,2,3-triazol-1-yl)-3,3-dimethylbutanoyl)-4-hydroxy-N-(®-2-(2-methoxyethoxy)-1-(4-(4-methylthiazol-5-yl)phenyl)ethyl)pyrrolidine-2-carboxamide]	> 1000		< 10	> 90	< 50			
